Measured values: patent publication US8242150B2, “Triazole derivatives for treating alzheimer'S disease and related conditions” (Merck Sharp & Dohme Corp., priority 2007, dated 2012)
“And” between values parts separate entries of the source, which are not always exact repeats. Identical values can stand only once. Counter-ions that a name gives are not always drawn. Like-named read-outs stand apart in the source and are kept apart here.

Test system: Aβ(1-42)
Test: Cell-based γ-secretase assay, Aβ(42) detection
Set-up: species or system Human
Settings: read-out: Aβ42 IC50
Procedure: Cell-Based γ-Secretase Assay
Human SH-SY5Y neuroblastoma cells overexpressing the direct γ-secretase substrate SPA4CT were induced with sodium butyrate (10 mM) for 4 hours prior to plating. Cells were plated at 35,000 cells/well/100 μl in 96-well plates in phenol red-free MEM/10% FBS, 50 mM HEPES, 1% Glutamine and incubated for 2 hrs at 37° C., 5% CO2.
Compounds for testing were diluted into Me2SO to give a ten point dose-response curve. Typically 10 μl of these diluted compounds in Me2SO were further diluted into 182 μl dilution buffer (phenol red-free MEM/10% FBS, 50 mM HEPES, 1% Glutamine) and 10 μl of each dilution was added to the cells in 96-well plates (yielding a final Me2SO concentration of 0.5%). Appropriate vehicle and inhibitor controls were used to determine the window of the assay.
After incubation overnight at 37° C., 5% CO2, 25 μl and 50 μl media were transferred into a standard Meso avidin-coated 96-well plate for detection of Aβ(40) and Aβ(42) peptides, respectively. 25 μl Meso Assay buffer (PBS, 2% BSA, 0.2% Tween-20) was added to the Aβ(40) wells followed by the addition of 25 μl of the respective antibody premixes to the wells:
Aβ(42) premix: 1 μg/ml ruthenylated G2-11 antibody, 4 μg/ml; and biotinylated 4G8 antibody diluted in Origen buffer
(Biotinylated 4G8 antibody supplied by Signet Pathology Ltd; G2-10 and G2-11 antibodies supplied by Chemicon)
After overnight incubation of the assay plates on a shaker at 4° C., the Meso Scale Sector 6000 Imager was calibrated according to the manufacturer's instructions. After washing the plates 3 times with 150 μl of PBS per well, 150 μl Meso Scale Discovery read buffer was added to each well and the plates were read on the Sector 6000 Imager according to the manufacturer's instructions.
LD50 and IC50 values for inhibition of Aβ(40) and Aβ(42) were calculated by nonlinear regression fit analysis using the appropriate software (eg. Excel fit). The total signal and the background were defined by the corresponding Me2SO and inhibitor controls.

[1] = Homo sapiens, SH-SY5Y, SH-SY5Y cells overexpressing SPA4CT, two values in a cell = individual enantiomers

Compound	IC50 [1] [µM]	further results
COc1cc(-c2cn(C3CCc4ccccc4NC3=O)nn2)ccc1-n1cnc(C)c1 (racemic) [Example 2, (R) and (S)-3-{4-[3-methoxy-4-(4-methyl-imidazol-1-yl)-phenyl]-1,2,3-triazol-1-yl}-1,3,4,5-tetrahydro-1-benzazepin-2-one]		IC50 (SH-SY5Y cells overexpressing SPA4CT, two values in a cell = individual enantiomers): 0.386 µM and 1.33 µM
COc1cc(-c2cn(Cc3ccc(C(C)(C)C)cc3)nn2)ccc1-n1cnc(C)c1 [Example 3, 1-(4-tert-butyl-benzyl)-4-[3-methoxy-4-(4-methyl-imidazole-1-yl)-phenyl]-1H-[1,2,3]triazole trifluoroacetate salt]		IC50 (Homo sapiens, SH-SY5Y): 0.31 µM
COc1cc(-c2cn(CSc3ccccc3)nn2)ccc1-n1cnc(C)c1 [Example 4, 4-[3-Methoxy-4-(4-methyl-imidazol-1-yl)-phenyl]-1-phenylsulfanylmethyl-1H-[1,2,3]triazole trifluoroacetate salt]	0.529	
COc1cc(-c2cn(Cc3ccc(-c4nc5ccccc5o4)cc3)nn2)ccc1-n1cnc(C)c1 [Example 6, 2-(4-{4-[3-Methoxy-4-(4-methyl-imidazol-1-yl)-phenyl]-[1,2,3]triazol-1-ylmethyl}-phenyl)-benzooxazole trifluoroacetate salt]		IC50 (Homo sapiens, SH-SY5Y): 0.177 µM
COc1cc(-c2cn(C(F)(F)C(=O)NCc3ccc(F)cc3)nn2)ccc1-n1cnc(C)c1 [Example 9, 2,2-Difluoro-N-(4-fluoro-benzyl)-2-{4-[3-methoxy-4-(4-methyl-imidazol-1-yl)-phenyl]-[1,2,3]triazol-1-yl}-acetamide trifluoroacetate salt]	0.933	
COc1cc(-c2cn(CC(=O)N(CC(F)(F)F)c3ccc(F)c(Cl)c3)nn2)ccc1-n1cnc(C)c1 [Example 12, N-(3-chloro-4-fluorophenyl)-2-{4-[3-methoxy-4-(4-methyl-1H-imidazol-1-yl)phenyl]-1H-1,2,3-triazol-1-yl}-N-(2,2,2-trifluoroethyl)acetamide trifluoroacetate salt]	0.084	

Continued by falling IC50 [1], values first:

IC50 [1] [µM]	Compound	further results
2.66	COc1cc(-c2cn(C(C)c3ccccc3)nn2)ccc1-n1cnc(C)c1 (stereo not shown) [Example 5, 4-[3-Methoxy-4-(4-methyl-imidazol-1-yl)-phenyl]-1-(1-phenyl-ethyl)-1H-[1,2,3]triazole trifluoroacetate salt]	
2.25	COc1cc(-c2cn(C(F)(F)c3ccc(C(F)F)cc3)nn2)ccc1-n1cnc(C)c1 [Example 7, 1-[(4-Difluoromethyl-phenyl)-difluoro-methyl]-4-[3-methoxy-4-(4-methyl-imidazol-1-yl)-phenyl]-1H-[1,2,3]triazole trifluoracetate salt]	
1.07	COc1cc(-c2cn(CC(=O)N3CCCC4CCCCC43)nn2)ccc1-n1cnc(C)c1 (stereo not shown) [Example 8, 2-{4-[3-Methoxy-4-(4-methyl-imidazol-1-yl)-phenyl]-[1,2,3]triazol-1-yl}-1-(octahydro-quinolin-1-yl)-ethanone trifluoroacetate salt]	
0.616	COc1cc(-c2cn(CC(=O)N(c3ccccc3)C3CCCCC3)nn2)ccc1-n1cnc(C)c1 [Example 1, N-cyclohexyl-2-{4-[3-methoxy-4-(4-methyl-imidazol-1-yl)-phenyl]-1,2,3-triazol-1-yl}-N-phenyl-acetamide]	
